Measured values published in ChEMBL document CHEMBL3132859, “Synthesis and biological evaluation of a post-synthetically modified Trp-based diketopiperazine” (Medchemcomm, 2013).
Activity calls are given as the source filed them. No cut-off for these calls is given here.

Assays:
Format in all cases: functional, cell-based
[1] = system: SK-BR-3; assay: Antiproliferative activity against human SKBR3 cells after 72 hrs by MTT assay
[2] = system: HT-29; assay: Antiproliferative activity against human HT-29 cells after 72 hrs by MTT assay
[3] = system: A549; assay: Antiproliferative activity against human A549 cells after 72 hrs by MTT assay
[4] = system: HeLa; assay: Antiproliferative activity against human HeLa cells after 72 hrs by MTT assay
[5] = system: CAL-27; assay: Antiproliferative activity against human CAL27 cells after 72 hrs by MTT assay
[6] = system: MDA-MB-231; assay: Antiproliferative activity against human MDA-MB-231 cells after 72 hrs by MTT assay
[7] = system: HeLa; assay: Antiproliferative activity against human HeLa cells after 24 hrs by MTT assay
[8] = system: HT-29; assay: Antiproliferative activity against human HT-29 cells after 24 hrs by MTT assay

| Structure (SMILES) | Activity [1] | Activity [2] | Activity [3] | Activity [8] | further results |
| --- | --- | --- | --- | --- | --- |
| COc1ccc(-c2[nH]c3ccccc3c2C[C@@H]2NC(=O)[C@@H]3CCCN3C2=O)cc1 | Active | Active | Active | – | – |
| O=C1N[C@@H](Cc2c(-c3ccc(C(F)(F)F)cc3)[nH]c3ccccc23)C(=O)N2CCC[C@@H]12 | Active | Active | Active | – | IC50 [4]: 26 µM; Activity [5]: Active; Activity [6]: Active |
| O=C1N[C@@H](Cc2c(-c3ccccc3Cl)[nH]c3ccccc23)C(=O)N2CCC[C@@H]12 | – | – | – | Active | Activity [7]: Active |
| Cc1ccc(-c2[nH]c3ccccc3c2C[C@@H]2NC(=O)[C@@H]3CCCN3C2=O)cc1 | Active | Active | Active | – | – |
| COC(=O)c1ccc(-c2[nH]c3ccccc3c2C[C@@H]2NC(=O)[C@@H]3CCCN3C2=O)cc1 | Active | Active | Active | – | – |
| O=C1N[C@@H](Cc2c(-c3cc(C(F)(F)F)cc(C(F)(F)F)c3)[nH]c3ccccc23)C(=O)N2CCC[C@@H]12 | – | – | – | Active | – |
| O=C1N[C@H](Cc2c(-c3ccc(C(F)(F)F)cc3)[nH]c3ccccc23)C(=O)N2CCC[C@H]12 | – | – | Active | – | Activity [5]: Active; Activity [6]: Active |
| O=C1N[C@@H](Cc2c(-c3ccc(Cl)cc3)[nH]c3ccccc23)C(=O)N2CCC[C@@H]12 | Active | Active | Active | – | IC50 [4]: 52 µM |
| O=C1N[C@@H](Cc2c(-c3ccccc3C(F)(F)F)[nH]c3ccccc23)C(=O)N2CCC[C@@H]12 | – | – | – | Active | Activity [7]: Active |
| COc1ccccc1-c1[nH]c2ccccc2c1C[C@@H]1NC(=O)[C@@H]2CCCN2C1=O | – | – | – | Active | Activity [7]: Active |
| O=C1N[C@@H](Cc2c[nH]c3ccccc23)C(=O)N2CCC[C@@H]12 [BREVIANAMIDE F] | – | – | – | – | IC50 [4]: > 200 µM |
